From patent US8802064B2, “Inhibitors of fatty acid amide hydrolase” (Infinity Pharmaceuticals, Inc., priority 2009, dated 2014)

biological target: T1, human FAAH (Homo sapiens, UniProt O00519); test: Human FAAH inhibition assay (fluorescence, AMC arachidonoyl amide hydrolysis); type: biochemical; details: human FAAH from transfected COS-7 cells; 20 μM AMC arachidonoyl amide; 30 min preincubation, 4 h reaction at room temperature
T1 construct: host or cells: COS-7 cells, transient transfection (FuGENE 6); 13,000 g membrane fraction solubilised in 1% Triton X-100
T1 sequence (O00519 1-579): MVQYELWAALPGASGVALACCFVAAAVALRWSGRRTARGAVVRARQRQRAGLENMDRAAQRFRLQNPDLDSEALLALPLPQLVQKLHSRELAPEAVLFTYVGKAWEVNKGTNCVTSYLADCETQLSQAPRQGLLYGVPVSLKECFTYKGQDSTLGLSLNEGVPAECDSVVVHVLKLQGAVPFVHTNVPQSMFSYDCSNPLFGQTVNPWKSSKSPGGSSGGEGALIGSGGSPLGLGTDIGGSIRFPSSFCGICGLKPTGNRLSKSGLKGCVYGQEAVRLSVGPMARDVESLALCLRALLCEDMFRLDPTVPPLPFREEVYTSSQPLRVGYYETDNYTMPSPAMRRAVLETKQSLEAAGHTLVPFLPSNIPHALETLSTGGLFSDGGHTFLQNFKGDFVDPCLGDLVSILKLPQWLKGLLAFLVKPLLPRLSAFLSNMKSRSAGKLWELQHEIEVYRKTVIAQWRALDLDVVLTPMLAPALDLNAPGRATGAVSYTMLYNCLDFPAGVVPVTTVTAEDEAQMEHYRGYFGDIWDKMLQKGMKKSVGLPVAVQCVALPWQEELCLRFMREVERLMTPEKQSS
Procedure: Exemplary compounds are set forth in the Examples provided below. Compounds were assayed as inhibitors of human FAAH using the method described in detail in Example 16.
The following assays were used to determine the inhibition of FAAH: (1) a fluorescence-based assay (Manjunath et al., Analytical Biochemistry (2005) 343:143-151); and (2) a microsome-based fluorescent assay (Wang et al., Biomolecular Screening (2006) 1-9).
COS-7 cells were split the day before, 1:5 into 150 mm×25 mm cell culture dishes (Corning Inc., Cat. No. 430599). Transient transfection took place at 30-40% confluency according to FuGENE 6 Transfection Reagent (Roche, Cat. No. 11814 443 001).
The FuGENE transfection 6 reagent (45 uL) was added to 1410 μL of media (DMEM, serum free without pen/strep) in a 15 mL conical tube and incubated at room temp for 5 minutes, followed by the addition of FAAH plasmid DNA (15 μg) (OriGene Cat. No. TC119221, Genbank Accession No. NM_001441.1, 0.67 ug/uL) and a further incubation of 15 minutes at room temperature. The resulting solution was added into one dish of 30-40% confluent COS-7 cells in a dropwise manner. The COS-7 cell dish was subsequently incubated for 48 hours. The cells were then harvested.
Media was aspirated from the dishes and the cells rinsed with 10 mL PBS. The PBS was removed and 3 mL of PBS added to the dish. The dish was scraped to resuspend the cells, and the subsequent cell suspension collected into a 15 mL conical tube. The cells were pelleted by centrifugation at 1200 rpm for 5 minutes in a bench top centrifuge. PBS was removed and the cell pellet snap frozen in liquid nitrogen and stored at 80° C.
COS-7 Cells FAAH purification: • (1) Fractionation: Frozen cell pellets from transient transfections were thawed on ice and resuspended in 12.5 mM Hepes pH 8.0, 100 mM NaCl, 1 mM EDTA (10 mL/0.2 g cell pellet). The pellets were dounce homogenized and then sonicated to produce cell extract. The cell extract was subsequently centrifuged at 1000 g to remove cellular debris. The pellet was discarded and the supernatant centrifuged at 13,000 g for 20 minutes. The pellet contained membrane bound FAAH. The supernatant was discarded and the pellet resolubilized. • (2) Resolubilization: The fraction of interest, (13,000 g, membrane fraction) was resuspended in 2.3 mL resuspension buffer (20 mM Hepes pH 7.8, 10% v/v Glycerol, 1 mM EDTA, 1% Triton X-100) and the sample incubated on ice for 1 hour and then centrifuged to remove any particulate matter. The supernatant containing solubilized human FAAH was aliquoted and snap frozen in liquid nitrogen and stored at 80° C. until use. • (3) Characterization: Protein Concentration determined by Bradford assay. • SDS gel and Western blot to confirm presence of FAAH • FAAH activity assay • Km determination—96-well assay • Linear dependence—96-well assay • Standard compound Ki determination—384-well assay
Rat FAAH biochemical assays were carried out in a 96 well flat bottom black nontreated polystyrene plates (Corning Costar Catalogue #3915). FAAH reaction buffer: 50 mM Hepes (pH 7.5), 1 mM EDTA, 0.2% Triton X-100. FAAH substrate—AMC Arachidonoyl Amide (Cayman Chemicals Company, Catalog #10005098). The reaction was read in an Envision microtiter plate reader [Excitation filter 355 nm (40 nm bandpass); Emmision filter 460 nm (25 nm bandpass)]. The raw fluorescence was plotted on the y axis and the inhibitor concentration on the x axis to give a dose response inhibition curve. The data was fitted to a single site competitive inhibition equation, fixing the Km for the rat and human enzyme to 12 μM and 9 μM respectively.
The principle of this assay was the hydrolysis of AMC-Arichodonoyl, a fluorescent analogue of Anandamide, which results in the formation of Arachidonic acid and AMC. The formation of AMC results in an increase in fluorescence (see, for example, Manjunath et al., Analytical Biochemistry (2005) 343:143-151; and Wang et al., Biomolecular Screening (2006) 1-9). […]

SMILES	Ki [nM]
Cn1ccc2cc(B(O)O)ccc2c1=O [Compound 1]	10 to 100
O=c1c2ccc(B(O)O)cc2ccn1Cc1ccccc1 [Compound 2]	10 to 100
CC(c1ccccc1)n1ccc2cc(B(O)O)ccc2c1=O (stereo not drawn) [Compound 4]	10 to 100
CC(Cn1ccc2cc(B(O)O)ccc2c1=O)c1ccccc1 (stereo not drawn) [Compound 5]	10 to 100
CC(Cc1ccccc1)n1ccc2cc(B(O)O)ccc2c1=O (stereo not drawn) [Compound 6]	10 to 100
Cc1nc2cc(B(O)O)ccc2c(=O)n1C [Compound 8]	> 1000
Cc1nc2cc(B(O)O)ccc2c(=O)n1CCc1ccccc1 [Compound 9]	10 to 100
O=c1c2cc(B(O)O)ccc2ccn1CCc1ccccc1 [Compound 11]	10 to 100
O=c1c2ccc(B(O)O)cc2cnn1CCc1ccccc1 [Compound 13]	≤ 10

Other lines, results leading:

Ki [nM]	SMILES
≤ 10	O=c1c2ccc(B(O)O)cc2ccn1CCc1ccccc1 [Compound 3]
≤ 10	CCCCCCn1ccc2cc(B(O)O)ccc2c1=O [Compound 7]
≤ 10	O=c1c2ccc(B(O)O)cc2ncn1CCc1ccccc1 [Compound 10]
≤ 10	O=C1c2ccc(B(O)O)cc2CCN1CCc1ccccc1 [Compound 12]
100 to 1000	O=c1[nH]c(CCc2ccccc2)nc2ccc(B(O)O)cc12 [Compound 14]
≤ 10	O=C1c2ccc(B(O)O)cc2CN1CCc1ccccc1 [Compound 15]
